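A five-concentration, 48-hour dose response in 96-well plates underlies each endpoint, interpolated linearly between surrounding concentrations. GI50 marks 50% less growth.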 Activity calls are given as the source filed them. No stated cut-off is given here; in the data, active = GI50 up to about 1.1 µM and inactive = higher.
Tests used:
Experiment in all cases: NCI anticancer screen, dose series, 48 h
[1] = tested on: CAKI-1
[2] = tested on: CCRF-CEM
[3] = tested on: COLO 205
[4] = tested on: DMS-273
[5] = tested on: EKVX
[6] = tested on: IGROV-1
[7] = tested on: KM12
[8] = tested on: M19-MEL
[9] = tested on: NCI-H460
[10] = tested on: OVCAR-3
[11] = tested on: RXF 393
[12] = tested on: SF-268
[13] = tested on: SF-295
[14] = tested on: SK-MEL-28
[15] = tested on: SW-620
[16] = tested on: ACHN
[17] = tested on: OVCAR-5
[18] = tested on: SR

Measured: GI50

Nc1ncnc2c1ncn2CC(O)CO (stereo not given)
inactive: [1] > 100 µM | [2] > 100 µM | [3] > 100 µM | [4] > 100 µM | [5] > 100 µM | [6] > 100 µM | [7] > 100 µM | [8] > 100 µM | [9] > 100 µM | [10] > 100 µM | [11] > 100 µM | [12] > 100 µM | [13] > 100 µM | [14] > 100 µM | [15] > 100 µM

COc1cc(C(C)c2cc3c(cc2OCCCCOc2cc4c(cc2C(C)c2cc(OC)c(OC)c(OC)c2)OCO4)OCO3)cc(OC)c1OC (stereo not given)
inactive: [16] 69.5 µM | [1] > 100 µM | [2] 48.3 µM | [3] > 100 µM | [5] 40.5 µM | [6] 49.9 µM | [7] 33 µM | [8] 38.4 µM | [9] 45.3 µM | [10] 21.7 µM | [17] > 100 µM | [11] 17.6 µM | [12] 51.5 µM | [13] 26.5 µM | [14] 71 µM | [18] 10.2 µM | [15] 26.9 µM

NC(CCc1ncc(C(=O)O)s1)C(=O)O (stereo not given)
inactive: [16] > 100 µM | [1] > 100 µM | [2] > 100 µM | [3] > 100 µM | [5] > 100 µM | [6] > 100 µM | [7] > 100 µM | [8] > 100 µM | [9] > 100 µM | [10] > 100 µM | [11] > 100 µM | [13] > 100 µM | [14] > 100 µM | [15] > 100 µM

CCOC(=O)c1cnc2oc(-c3ccc(OC)cc3)nn2c1=O
inactive: [3] > 100 µM | [4] > 100 µM | [5] > 100 µM | [6] > 100 µM | [7] > 100 µM | [8] > 100 µM | [10] > 100 µM | [17] > 100 µM | [11] 93.1 µM | [12] > 100 µM | [13] > 100 µM | [14] > 100 µM | [18] > 10 µM | [15] > 100 µM

Cc1ccc(NS(=O)(=O)c2cc(C(C)(C)C)ccc2OCCOCCOCCOc2ccc(C(C)(C)C)cc2S(=O)(=O)Nc2ccc(C)cc2)cc1
inactive: [16] > 100 µM | [1] > 100 µM | [2] > 100 µM | [3] > 100 µM | [4] > 100 µM | [5] > 100 µM | [6] > 100 µM | [7] > 100 µM | [8] > 100 µM | [9] > 100 µM | [10] > 100 µM | [17] > 100 µM | [11] > 100 µM | [12] > 100 µM | [13] > 100 µM | [14] > 100 µM | [15] > 100 µM

CON1C(=O)C2(CCCCC2)C(=O)C12C=CC(C)CC2 (stereo not given)
inactive: [1] > 100 µM | [2] > 100 µM | [3] > 100 µM | [4] > 100 µM | [5] 48.2 µM | [6] > 100 µM | [7] > 100 µM | [8] > 100 µM | [9] > 100 µM | [10] > 100 µM | [11] 30.7 µM | [12] > 100 µM | [13] > 100 µM | [14] > 100 µM | [15] > 100 µM

CC1=NN(C(=O)Cc2ccccc2)C(=O)/C1=C\C=C\c1ccccc1
inactive: [16] > 100 µM | [1] > 100 µM | [2] > 100 µM | [3] > 100 µM | [4] > 100 µM | [5] > 100 µM | [7] > 100 µM | [10] > 100 µM | [17] > 100 µM | [12] > 100 µM | [13] > 100 µM | [14] > 100 µM | [18] > 100 µM | [15] > 100 µM

COC12CC(O)=C(C(C)=O)C(=O)C1(C)c1c(OC(C)=O)c(C)c(O)c(C(C)=O)c1O2 (stereo not given)
inactive: [16] 12.3 µM | [1] 15.7 µM | [2] 8.41 µM | [5] 31 µM | [6] 7.89 µM | [7] 12 µM | [8] 23.2 µM | [9] 13.2 µM | [10] 14.1 µM | [17] 31.9 µM | [11] 14.7 µM | [12] 23.6 µM | [13] 8.09 µM | [14] 16 µM | [18] 18.5 µM | [15] 22.7 µM

CC1=C(C(=O)Nc2ccc([N+](=O)[O-])cc2)C(c2cccc([N+](=O)[O-])c2)C(C(=O)Nc2ccc([N+](=O)[O-])cc2)=C(C)N1
inactive: [16] 20 µM | [2] 12.6 µM | [3] 45.8 µM | [5] 48.2 µM | [6] 21.2 µM | [7] 12.1 µM | [8] 23 µM | [9] 27.7 µM | [10] 44.5 µM | [17] > 100 µM | [11] 16.2 µM | [12] 21.6 µM | [13] 30.1 µM | [14] 30.7 µM | [15] 31.9 µM

COc1ccc(S(=O)(=O)N/N=C/c2cc(I)cc([N+](=O)[O-])c2O)cc1OC
inactive: [16] 30.4 µM | [1] 31.6 µM | [2] 34.4 µM | [3] 50.9 µM | [4] 35.2 µM | [5] 44.5 µM | [6] 37.7 µM | [7] 31.3 µM | [8] 33 µM | [9] 55 µM | [10] 24.5 µM | [17] > 100 µM | [13] 29 µM | [15] 47.8 µM

CC(C)(C)C1CCC2(CC1)c1[nH]c3ccccc3c1C1(CCC(C(C)(C)C)CC1)c1[nH]c3ccccc3c12 (stereo not given)
inactive: [16] > 100 µM | [1] > 100 µM | [2] > 100 µM | [3] 88.9 µM | [4] > 100 µM | [5] > 100 µM | [6] > 100 µM | [7] > 100 µM | [8] > 100 µM | [9] > 100 µM | [17] > 100 µM | [11] > 100 µM | [12] > 100 µM | [13] > 100 µM | [14] > 100 µM | [15] 39.4 µM

COC(=O)C1=C(C)N(NC(N)=O)C2(N)N(NC(N)=O)C(C)=C(C(=O)OC)C12C#N (stereo not given)
inactive: [16] > 100 µM | [1] > 100 µM | [2] > 100 µM | [3] > 100 µM | [4] > 100 µM | [5] > 100 µM | [6] > 100 µM | [7] > 100 µM | [8] > 100 µM | [9] > 100 µM | [10] > 100 µM | [17] > 100 µM | [12] > 100 µM | [13] > 100 µM | [14] > 100 µM | [15] > 100 µM

O=C1C=C(Nc2ccccc2C(=O)CC(=O)C(=O)Nc2ccc(Cl)c(Cl)c2)c2ccccc2C1=O
inactive: [16] 73.5 µM | [1] 87.3 µM | [2] 4.76 µM | [3] > 100 µM | [5] > 10 µM | [6] > 100 µM | [7] 59.6 µM | [8] 3.98 µM | [9] 36.2 µM | [10] 34.4 µM | [17] > 100 µM | [11] 71.3 µM | [12] 19.9 µM | [13] 59 µM | [14] 10.6 µM | [18] 5 µM

COC(=O)C1=C(c2ccc(OC)c(OC)c2)OC(c2cc(OC)c(OC)c(OC)c2)C1 (stereo not given)
inactive: [16] 36.4 µM | [1] 60.3 µM | [2] > 100 µM | [4] 18.7 µM | [5] > 100 µM | [6] 24.7 µM | [7] 33.1 µM | [8] > 100 µM | [9] > 100 µM | [10] 38.1 µM | [17] > 100 µM | [11] 22.1 µM | [12] 27.9 µM | [13] 23 µM | [14] > 100 µM | [15] 41.6 µM

C1CCN(C2OC3C(COC3N3CCCCC3)OC2OC2CCO[C@@H]2N2CCCCC2)CC1 (stereo not given in full)
inactive: [16] 25.9 µM | [1] 30.1 µM | [2] 5.11 µM | [3] 38.3 µM | [4] 32.1 µM | [5] 33.8 µM | [6] 79.3 µM | [7] 78.5 µM | [9] > 100 µM | [10] 24.8 µM | [17] > 100 µM | [11] 8.18 µM | [12] 53.7 µM | [13] 47.5 µM | [14] 57.9 µM | [15] 81.3 µM

O=C1C2Cc3ccccc3CN2C(=O)N1CN1CCN(CN2C(=O)C3Cc4ccccc4CN3C2=O)CC1 (stereo not given)
inactive: [16] > 100 µM | [1] > 100 µM | [2] > 100 µM | [3] > 100 µM | [4] > 100 µM | [5] > 100 µM | [6] > 100 µM | [7] > 100 µM | [8] > 100 µM | [9] > 100 µM | [10] > 100 µM | [17] > 100 µM | [11] > 100 µM | [12] > 100 µM | [13] > 100 µM | [14] > 100 µM | [15] > 100 µM

CCOC(=O)C(NC(=O)c1nc[nH]c1/N=N/N(C)C)C(C)C (stereo not given)
inactive: [16] > 100 µM | [1] > 100 µM | [2] > 100 µM | [3] > 100 µM | [4] > 100 µM | [5] > 100 µM | [6] > 100 µM | [7] > 100 µM | [8] > 100 µM | [9] > 100 µM | [10] > 100 µM | [17] > 100 µM | [12] > 100 µM | [13] > 100 µM | [14] > 100 µM | [18] > 100 µM | [15] > 100 µM
